Assay results published in patent US11000033B2, “Ketone or oxime compound, and herbicide” (NISSAN CHEMICAL CORPORATION, priority 2014, dated 2021).

Tests used:
Format in all cases: in vivo
Avena fatua = experiment: Test Example 5: herbicidal effect by foliage application, plastic box (symbol I); conditions: 320 g/ha, 3 weeks after application
In short: (§1)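 Post-emergence spray; diluvial soil (sterilized), ~1.5 cm seed cover; greenhouse 25–30° C; 14-day-old plants; water-diluted emulsion at predetermined dose; visual score at 3 wk post-treatment.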

Apera spica-venti = experiment: Test Example 5: herbicidal effect by foliage application, plastic box (symbol L); conditions: 320 g/ha, 3 weeks after application
In short: as §1

[1] = tested on: Echinochloa crus-galli var. crus-galli; experiment: Test Example 4: herbicidal effect by soil treatment (symbol H); conditions: application herbicide amount 320 g/ha
In short: (§2)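 Seeds were sown in sterilized diluvial soil, covered with about 1.5 cm of soil, and the soil surface was sprayed with a water-diluted emulsion of the compound at a predetermined rate. Plants grew in a greenhouse at 25° C. to 30° C.; effects were scored visually 3 weeks after application.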

Scirpus juncoides = experiment: Test Example 2: herbicidal activity, application during weed generation in submerged conditions (symbol B); conditions: Table 23; application herbicide amount 320 g/ha; grade 0-5 by criteria of Test Example 1
In short: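 Visual herbicidal ratings, taken three weeks after dosing, reflect post-emergence water-surface application to seedlings at one to two leaves. Conditions: co-sown weeds in alluvial soil flooded to 4 cm, greenhouse held at 25° C. to 30° C.; compound given as water-diluted emulsion at a fixed herbicide amount.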

Stellaria media = experiment: Test Example 5: herbicidal effect by foliage application, plastic box (symbol P); conditions: 320 g/ha, 3 weeks after application
In short: as §1

Veronica persica = experiment: Test Example 5: herbicidal effect by foliage application, plastic box (symbol R); conditions: 320 g/ha, 3 weeks after application
In short: as §1

Amaranthus retroflexus [2] = experiment: Test Example 5: herbicidal effect by foliage application, plastic box (symbol N); conditions: 320 g/ha, 3 weeks after application
In short: as §1

Amaranthus retroflexus [3] = experiment: Test Example 4: herbicidal effect by soil treatment (symbol N); conditions: application herbicide amount 320 g/ha
In short: as §2

Lolium multiflorum Lam. = experiment: Test Example 5: herbicidal effect by foliage application, plastic box (symbol K); conditions: 320 g/ha, 3 weeks after application
In short: as §1

Abutilon theophrasti = experiment: Test Example 5: herbicidal effect by foliage application, plastic box (symbol M); conditions: 320 g/ha, 3 weeks after application
In short: as §1

Galium spurium = experiment: Test Example 5: herbicidal effect by foliage application, plastic box (symbol Q); conditions: 320 g/ha, 3 weeks after application
In short: as §1

rapeseed = experiment: Test Example 4: effect on crop by soil treatment (symbol g); conditions: application herbicide amount 320 g/ha
In short: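 Diluvial soil (sterilized) in boxes; seeds placed spot-wise alongside weed species; ~1.5 cm covering soil. Greenhouse, 25–30° C.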

[4] = tested on: Echinochloa oryzacola Vasing.; experiment: Test Example 1: herbicidal activity, application before weed generation in submerged conditions (symbol A); conditions: application herbicide amount 320 g/ha
In short: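 Steps: alluvial soil flooded to 4 cm; weed seeds sown together; rice seedlings (2.5 leaf) transplanted; diluted emulsion applied to water surface the same day as sowing; plants grown at 25–30 °C in greenhouse; herbicidal effect rated on a 0–5 scale at 3 weeks.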

Cyperus difformis = experiment: Test Example 3: herbicidal effect by foliage application, Wagner pot (symbol E); conditions: application herbicide amount 320 g/ha; for E herbicidal effect grade: Table 24
In short: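 Herbicidal activity was rated three weeks after a foliar spray of diluted emulsion concentrate, applied at a predetermined dose to plants grown for 14 days from seed in waterlogged alluvial soil within a 25–30 °C greenhouse.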

corn = experiment: Test Example 4: effect on crop by soil treatment (symbol c); conditions: application herbicide amount 320 g/ha
In short: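 Sterilized diluvial soil, spot sowing, ~1.5 cm soil cover; greenhouse 25–30° C.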

| Structure (SMILES) | I: Avena fatua, herbicidal effect grade (Avena fatua) | L: Apera spica-venti, herbicidal effect grade (Apera spica-venti) | Herbicidal effect grade, H: Echinochloa crus-galli var. crus-galli [1] | Herbicidal effect grade, B: Scirpus juncoides (Scirpus juncoides) | P: Stellaria media, herbicidal effect grade (Stellaria media) | R: Veronica persica, herbicidal effect grade (Veronica persica) | N: Amaranthus retroflexus, herbicidal effect grade (Amaranthus retroflexus [2]) | Herbicidal effect grade, N: Amaranthus retroflexus (Amaranthus retroflexus [3]) | K: Lolium multiflorum Lam., herbicidal effect grade (Lolium multiflorum Lam.) | M: Abutilon theophrasti, herbicidal effect grade (Abutilon theophrasti) | Q: Galium spurium, herbicidal effect grade (Galium spurium) | Effect on crop grade, g: rapeseed (rapeseed) | A (Echinochloa oryzacola Vasing.) herbicidal effect grade [4] | E herbicidal effect grade (Cyperus difformis) | Effect on crop grade, c: corn (corn) | other results |
| --- | --- | --- | --- | --- | --- | --- | --- | --- | --- | --- | --- | --- | --- | --- | --- | --- |
| COCCON=C(C)CC1CC(O)=C(c2c(C)cc(Br)cc2C)C1=O (centres unmarked) [9-017] | 4 (Herbicidal ratio of 70% or higher and lower than 90%) | 3 (Herbicidal ratio of 40% or higher and lower than 70%) | 0 (Herbicidal ratio of 5% or lower (almost no effect)) | 0 (Herbicidal ratio of 5% or lower (almost no effect)) | 0 (Herbicidal ratio of 5% or lower (almost no effect)) | 0 (Herbicidal ratio of 5% or lower (almost no effect)) | 0 (Herbicidal ratio of 5% or lower (almost no effect)) | 0 (Herbicidal ratio of 5% or lower (almost no effect)) | 5 (Herbicidal ratio of 90% or more (almost completely withered)) | 0 (Herbicidal ratio of 5% or lower (almost no effect)) | 0 (Herbicidal ratio of 5% or lower (almost no effect)) | 0 (Herbicidal ratio of 5% or lower (almost no effect)) | 4 (Herbicidal ratio of 70% or higher and lower than 90%) | 3 (Herbicidal ratio of 40% or higher and lower than 70%) | 0 (Herbicidal ratio of 5% or lower (almost no effect)) |  |
| COCCON=C(C)CC1CC(O)=C(c2c(C)cc(-n3cc(Cl)cn3)cc2C)C1=O (centres unmarked) [9-016] | 5 (Herbicidal ratio of 90% or more (almost completely withered)) | 5 (Herbicidal ratio of 90% or more (almost completely withered)) | 5 (Herbicidal ratio of 90% or more (almost completely withered)) | 4 (Herbicidal ratio of 70% or higher and lower than 90%) | 3 (Herbicidal ratio of 40% or higher and lower than 70%) | 1 (Herbicidal ratio of 5% or higher and lower than 20%) | 0 (Herbicidal ratio of 5% or lower (almost no effect)) | 0 (Herbicidal ratio of 5% or lower (almost no effect)) | 5 (Herbicidal ratio of 90% or more (almost completely withered)) | 0 (Herbicidal ratio of 5% or lower (almost no effect)) | 2 (Herbicidal ratio of 20% or higher and lower than 40%) | 0 (Herbicidal ratio of 5% or lower (almost no effect)) | 5 (Herbicidal ratio of 90% or more (almost completely withered)) | 5 (Herbicidal ratio of 90% or more (almost completely withered)) | 3 (Herbicidal ratio of 40% or higher and lower than 70%) |  |
| COCCON=C(CC1CC(O)=C(c2c(C)cc(Br)cc2C)C1=O)C1CC1 (centres unmarked) [9-019] | 4 (Herbicidal ratio of 70% or higher and lower than 90%) | 1 (Herbicidal ratio of 5% or higher and lower than 20%) | 0 (Herbicidal ratio of 5% or lower (almost no effect)) | 0 (Herbicidal ratio of 5% or lower (almost no effect)) | 0 (Herbicidal ratio of 5% or lower (almost no effect)) | 0 (Herbicidal ratio of 5% or lower (almost no effect)) | 0 (Herbicidal ratio of 5% or lower (almost no effect)) | 0 (Herbicidal ratio of 5% or lower (almost no effect)) | 5 (Herbicidal ratio of 90% or more (almost completely withered)) | 0 (Herbicidal ratio of 5% or lower (almost no effect)) | 0 (Herbicidal ratio of 5% or lower (almost no effect)) | 0 (Herbicidal ratio of 5% or lower (almost no effect)) | 4 (Herbicidal ratio of 70% or higher and lower than 90%) | 4 (Herbicidal ratio of 70% or higher and lower than 90%) | 0 (Herbicidal ratio of 5% or lower (almost no effect)) |  |
| C=CCOC1=C(c2c(C)cc(C)cc2C)C(=O)C(CC(C)=NOC)C1 (centres unmarked) [1-007] | 3 (Herbicidal ratio of 40% or higher and lower than 70%) | 1 (Herbicidal ratio of 5% or higher and lower than 20%) |  | 0 (Herbicidal ratio of 5% or lower (almost no effect)) | 0 (Herbicidal ratio of 5% or lower (almost no effect)) | 0 (Herbicidal ratio of 5% or lower (almost no effect)) | 0 (Herbicidal ratio of 5% or lower (almost no effect)) |  | 5 (Herbicidal ratio of 90% or more (almost completely withered)) | 0 (Herbicidal ratio of 5% or lower (almost no effect)) | 0 (Herbicidal ratio of 5% or lower (almost no effect)) |  |  |  |  | H (Echinochloa crus-galli var. crus-galli) herbicidal effect grade [1]: 0 (Herbicidal ratio of 5% or lower (almost no effect)); N (Amaranthus retroflexus) herbicidal effect grade (Amaranthus retroflexus [3]): 0 (Herbicidal ratio of 5% or lower (almost no effect)); g (rapeseed) effect on crop grade (rapeseed): 0 (Herbicidal ratio of 5% or lower (almost no effect)); Herbicidal effect grade, A: Echinochloa oryzacola Vasing. [4]: 0 (Herbicidal ratio of 5% or lower (almost no effect)); herbicidal effect on E, grade 0-5 (Cyperus difformis): 0 (Herbicidal ratio of 5% or lower (almost no effect)); c (corn) effect on crop grade (corn): 0 (Herbicidal ratio of 5% or lower (almost no effect)) |
| COCCON=C(CC1CC(O)=C(c2c(C)cc(-n3cc(Cl)cn3)cc2C)C1=O)C1CC1 (centres unmarked) [9-020] | 5 (Herbicidal ratio of 90% or more (almost completely withered)) | 4 (Herbicidal ratio of 70% or higher and lower than 90%) | 0 (Herbicidal ratio of 5% or lower (almost no effect)) | 4 (Herbicidal ratio of 70% or higher and lower than 90%) | 3 (Herbicidal ratio of 40% or higher and lower than 70%) | 3 (Herbicidal ratio of 40% or higher and lower than 70%) | 5 (Herbicidal ratio of 90% or more (almost completely withered)) | 0 (Herbicidal ratio of 5% or lower (almost no effect)) | 5 (Herbicidal ratio of 90% or more (almost completely withered)) | 4 (Herbicidal ratio of 70% or higher and lower than 90%) |  | 0 (Herbicidal ratio of 5% or lower (almost no effect)) | 5 (Herbicidal ratio of 90% or more (almost completely withered)) | 5 (Herbicidal ratio of 90% or more (almost completely withered)) | 0 (Herbicidal ratio of 5% or lower (almost no effect)) |  |
